Experimental data from ChEMBL document CHEMBL3785080, “Individual and combined antiparasitic effect of six plant metabolites against Leishmania amazonensis and Trypanosoma cruzi” (Bioorg Med Chem Lett, 2016).

What was measured:
Leishmania amazonensis = experiment: Antileishmanial activity against intracellular amastigote stage of Leishmania amazonensis infected in human THP1 cells […] by microplate based assay; format: functional, organism-based
[1] = Cytotoxicity against human THP1 cells assessed as cell viability after 72 hrs by MTT assay; format: functional; conditions: THP-1, 72 h
[2] = Selectivity index, ratio of CC50 for human THP1 cells to IC50 for Leishmania amazonensis; format: functional, THP-1
Trypanosoma cruzi = experiment: Antiprotozoan activity against intracellular amastigote stage of Trypanosoma cruzi Tulahuen infected in human THP1 cells assessed as reduction in parasite viability after 48 hrs by microplate based assay; format: functional, organism-based; conditions: THP-1, 48 h
[3] = Selectivity index, ratio of CC50 for human THP1 cells to IC50 for Trypanosoma cruzi Tulahuen; format: functional, THP-1

CC1(C)C=Cc2c(ccc(C(=O)/C=C/c3ccc(O)cc3)c2O)O1
IC50 (Leishmania amazonensis): 23 µM
CC50 [1]: 76.2 µM
Ratio CC50/IC50 [2]: 3.31

COc1c(O)ccc2c1C(O)N(C)c1c-2ccc2cc3c(cc12)OCO3 (centres undefined)
IC50 (Leishmania amazonensis): 16.2 µM
CC50 [1]: > 125 µM
Ratio CC50/IC50 [2]: >7.69

CC(C)=CCc1c(O)c(CC=C(C)C)c2c(c1O)C(=O)C[C@@H](c1ccc(O)c(O)c1)O2
IC50 (Leishmania amazonensis): 29.2 µM
CC50 [1]: 46.3 µM
Ratio CC50/IC50 [2]: 1.58

C[C@@H]1[C@H](O)[C@@H](C)/C=C/C=C/C=C/C=C/C=C/C=C/C=C/[C@H](O[C@@H]2O[C@H](C)[C@@H](O)[C@H](N)[C@@H]2O)C[C@@H]2O[C@](O)(C[C@@H](O)C[C@@H](O)[C@H](O)CC[C@@H](O)C[C@@H](O)CC(=O)O[C@H]1C)C[C@H](O)[C@H]2C(=O)O [AMPHOTERICIN B]
IC50 (Leishmania amazonensis): 0.07 µM
CC50 [1]: 10 µM
Ratio CC50/IC50 [2]: 142

O=C(Cn1ccnc1[N+](=O)[O-])NCc1ccccc1 [BENZNIDAZOLE]
IC50 (Trypanosoma cruzi): 10.2 µM
CC50 [1]: > 125 µM
Ratio CC50/IC50 [3]: >12

COc1c(C=O)c(O)cc2c1C(=O)c1ccccc1C2=O [DAMNACANTHAL]
IC50 (Trypanosoma cruzi): 39.5 µM
CC50 [1]: 31.5 µM
Ratio CC50/IC50 [3]: 0.79

CC(C)=CCc1c(O)ccc(C(=O)/C=C/c2ccc(O)cc2)c1O [ISOBAVACHALCONE]
CC50 [1]: 36 µM

CC1(C)C=Cc2c(ccc(C(=O)/C=C/c3ccccc3)c2O)O1 [LONCHOCARPIN]
IC50 (Trypanosoma cruzi): 44.5 µM
IC50 (Leishmania amazonensis): 21.8 µM
CC50 [1]: 66 µM
Ratio CC50/IC50 [2]: 3.03
Ratio CC50/IC50 [3]: 1.48
